Experiments:
[1] = system: IL-13 induced STAT6 phosphorylation in BEAS-2B human lung epithelial cells; assay: Cellular JAKI potency assay (BEAS-2B); format: cell-based; conditions: Homo sapiens, BEAS-2B, BEAS-2B cells, read-out: BEAS2B pIC50 (converted)
Method: The JAKI cellular potency assay was carried out by measuring inhibition of interleukin-13 (IL-13, R&D Systems) induced STAT6 phosphorylation in BEAS-2B human lung epithelial cells (ATCC). BEAS-2B cells were grown at 37° C. in a 5% CO2 humidified incubator in 50% DMEM/50% F-12 medium (Life Technologies) supplemented with 10% FBS (Hyclone), 100 U/mL penicillin, 100 μg/mL streptomycin (Life Technologies), and 2 mM GlutaMAX (Life Technologies). On day 1 of the assay, cells were seeded at a 7,500 cells/well density in white poly-D-lysine-coated 384-well plates (Corning) with 25 μL medium and were allowed to adhere overnight in the incubator. On day 2 of the assay, the medium was removed and replaced with 12 μL of assay buffer (Hank's Balanced Salt Solution/HBSS, 25 mM HEPES, and 1 mg/ml bovine serum albumin/BSA) containing dose-responses of test compounds. Compounds were serially diluted in DMSO and then diluted another 1000-fold in media to bring the final DMSO concentration to 0.1%. Cells were incubated with test compounds at 37° C. for 1 h and followed by the addition of 12 μl of pre-warmed IL-13 (80 ng/mL in assay buffer) for stimulation. After incubating at 37° C. for 30 min, the assay buffer (containing compound and IL-13) was removed, and 10 μL of cell lysis buffer (25 mM HEPES, 0.1% SDS, 1% NP-40, 5 mM MgCl2, 1.3 mM EDTA, 1 mM EGTA, supplemented with Complete Ultra mini protease inhibitors and PhosSTOP from Roche Diagnostics). The plates were shaken at ambient temperature for 30 min before the addition of detection reagents. Levels of pSTAT6 were measured using the AlphaLISA SureFire Ultra pSTAT6 (Tyr641) assay kit from PerkinElmer. For dose-response analysis, percent inhibition data were plotted vs. compound concentrations, and IC50 values were determined from a 4-parameter robust fit model with the Graphpad Prism software. Results are expressed as the negative logarithm of the IC50 value, pIC50.
Test compounds having a lower IC50 value or higher pIC50 value in this assay show greater inhibition of IL-13 induced STAT6 phosphorylation.

JAK2 = JAK2 (Homo sapiens (Human), UniProt O60674); assay: Biochemical JAK kinase assay (LanthaScreen), JAK2; conditions: for Ki: read-out: JAK2 pKi (converted)
Method: (§1) A panel of four LanthaScreen JAK biochemical assays (JAK1, 2, 3 and Tyk2) were carried in a common kinase reaction buffer (50 mM HEPES, pH 7.5, 0.01% Brij-35, 10 mM MgCl2, and 1 mM EGTA). Recombinant GST-tagged JAK enzymes and a GFP-tagged STAT1 peptide substrate were obtained from Life Technologies.
(§2) Serially diluted compounds were pre-incubated with each of the four JAK enzymes and the substrate in white 384-well microplates (Corning) at ambient temperature for 1 h. ATP was subsequently added to initiate the kinase reactions in 10 μL total volume, with 1% DMSO. The final enzyme concentrations for JAK1, 2, 3 and Tyk2 are 4.2 nM, 0.1 nM, 1 nM, and 0.25 nM respectively; the corresponding Km ATP concentrations used are 25 μM, 3 μM, 1.6 μM, and 10 μM; while the substrate concentration is 200 nM for all four assays. Kinase reactions were allowed to proceed for 1 hour at ambient temperature before a 10 μL preparation of EDTA (10 mM final concentration) and Tb-anti-pSTAT1 (pTyr701) antibody (Life Technologies, 2 nM final concentration) in TR-FRET dilution buffer (Life Technologies) was added. The plates were allowed to incubate at ambient temperature for 1 h before being read on the EnVision reader (Perkin Elmer). Emission ratio signals (520 nm/495 nm) were recorded and utilized to calculate the percent inhibition values based on DMSO and background controls.
(§3) For dose-response analysis, percent inhibition data were plotted vs. compound concentrations, and IC50 values were determined from a 4-parameter robust fit model with the Prism software (GraphPad Software). Results were expressed as pIC50 (negative logarithm of IC50) and subsequently converted to pKi (negative logarithm of dissociation constant, Ki) using the Cheng-Prusoff equation.
(§4) Test compounds having a lower Ki value or higher pKi value in the four JAK assays show greater inhibition of JAK activity.

JAK1 = JAK1 (Homo sapiens (Human), UniProt P23458); assay: Biochemical JAK kinase assay (LanthaScreen), JAK1; conditions: for Ki: read-out: JAK1 pKi (converted)
Method: as §1, §2, §3, §4

JAK1, sequence (P23458 whole entry): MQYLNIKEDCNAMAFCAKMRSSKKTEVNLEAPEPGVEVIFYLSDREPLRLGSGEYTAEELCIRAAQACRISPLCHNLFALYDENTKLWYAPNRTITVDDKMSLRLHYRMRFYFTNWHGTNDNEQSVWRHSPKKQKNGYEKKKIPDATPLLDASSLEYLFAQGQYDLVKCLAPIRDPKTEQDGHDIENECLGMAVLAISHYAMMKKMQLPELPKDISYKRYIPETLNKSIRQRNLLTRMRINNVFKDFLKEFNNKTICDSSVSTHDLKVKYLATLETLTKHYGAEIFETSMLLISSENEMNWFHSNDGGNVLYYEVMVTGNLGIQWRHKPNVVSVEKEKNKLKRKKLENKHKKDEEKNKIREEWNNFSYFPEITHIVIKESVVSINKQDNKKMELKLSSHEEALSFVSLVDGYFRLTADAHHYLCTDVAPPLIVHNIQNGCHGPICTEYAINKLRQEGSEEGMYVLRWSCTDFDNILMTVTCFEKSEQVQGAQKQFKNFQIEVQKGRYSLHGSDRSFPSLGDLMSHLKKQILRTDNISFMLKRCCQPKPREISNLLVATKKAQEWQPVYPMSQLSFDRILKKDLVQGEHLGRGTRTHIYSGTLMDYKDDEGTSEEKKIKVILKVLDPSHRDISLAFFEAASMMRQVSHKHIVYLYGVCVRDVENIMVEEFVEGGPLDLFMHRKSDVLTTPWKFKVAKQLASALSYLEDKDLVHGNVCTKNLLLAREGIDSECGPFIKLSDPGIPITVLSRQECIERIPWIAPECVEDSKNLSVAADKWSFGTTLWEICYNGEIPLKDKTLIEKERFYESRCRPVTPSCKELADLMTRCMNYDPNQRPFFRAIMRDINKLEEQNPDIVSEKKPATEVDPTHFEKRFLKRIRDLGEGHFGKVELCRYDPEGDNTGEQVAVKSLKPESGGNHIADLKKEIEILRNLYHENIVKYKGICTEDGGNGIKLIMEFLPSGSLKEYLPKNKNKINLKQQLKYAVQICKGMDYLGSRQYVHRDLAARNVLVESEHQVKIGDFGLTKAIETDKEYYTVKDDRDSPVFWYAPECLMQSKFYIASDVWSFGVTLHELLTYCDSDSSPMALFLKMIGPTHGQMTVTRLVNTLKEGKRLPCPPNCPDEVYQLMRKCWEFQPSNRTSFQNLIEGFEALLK
JAK2, sequence (O60674 whole entry): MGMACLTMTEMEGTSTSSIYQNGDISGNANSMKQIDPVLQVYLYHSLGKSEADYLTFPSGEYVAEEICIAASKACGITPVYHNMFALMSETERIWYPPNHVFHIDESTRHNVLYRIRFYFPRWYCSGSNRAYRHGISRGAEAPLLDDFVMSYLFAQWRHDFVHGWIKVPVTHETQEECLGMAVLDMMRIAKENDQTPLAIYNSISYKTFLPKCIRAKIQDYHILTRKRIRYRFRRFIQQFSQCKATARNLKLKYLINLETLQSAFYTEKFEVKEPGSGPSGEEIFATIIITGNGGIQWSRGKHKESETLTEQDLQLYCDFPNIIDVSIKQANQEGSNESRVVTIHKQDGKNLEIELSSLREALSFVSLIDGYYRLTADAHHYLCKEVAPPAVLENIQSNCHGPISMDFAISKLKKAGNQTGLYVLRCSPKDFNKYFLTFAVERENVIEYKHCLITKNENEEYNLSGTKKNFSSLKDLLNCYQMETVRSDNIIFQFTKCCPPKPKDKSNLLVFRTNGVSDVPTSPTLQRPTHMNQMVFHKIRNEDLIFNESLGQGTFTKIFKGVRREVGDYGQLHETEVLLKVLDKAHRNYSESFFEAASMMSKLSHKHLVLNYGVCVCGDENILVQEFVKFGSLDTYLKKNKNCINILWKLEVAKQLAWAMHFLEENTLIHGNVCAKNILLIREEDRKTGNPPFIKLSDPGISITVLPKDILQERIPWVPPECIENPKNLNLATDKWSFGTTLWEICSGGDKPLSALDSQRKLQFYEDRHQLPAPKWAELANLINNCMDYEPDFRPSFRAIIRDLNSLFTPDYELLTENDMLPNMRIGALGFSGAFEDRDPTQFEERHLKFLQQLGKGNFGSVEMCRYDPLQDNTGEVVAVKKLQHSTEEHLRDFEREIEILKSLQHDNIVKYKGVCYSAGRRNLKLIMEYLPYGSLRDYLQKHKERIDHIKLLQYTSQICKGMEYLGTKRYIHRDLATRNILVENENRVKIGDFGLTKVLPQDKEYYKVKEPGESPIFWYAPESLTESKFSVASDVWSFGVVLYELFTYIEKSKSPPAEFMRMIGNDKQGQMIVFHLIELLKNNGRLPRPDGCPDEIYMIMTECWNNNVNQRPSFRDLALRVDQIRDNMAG

## CCc1cc(O)ccc1-c1ccc2c(-c3nc(C4=CCCN(CCCOC)C4)c[nH]3)n[nH]c2c1 [Example 65]
[1]
  IC50: 3.16 to 10 nM
JAK2
  Ki: 0.1 to 1 nM
JAK1
  Ki: 0.1 to 1 nM

## CCc1cc(O)ccc1-c1ccc2c(-c3nc(C4=CCCN(C(C)C5CC(O)C5)C4)c[nH]3)n[nH]c2c1F (stereo not drawn) [Example 66]
[1]
  IC50: 10 to 31.6 nM
JAK2
  JAK2 pKi: A (A represents a pKi value ≥10 (Ki≤0.1 nM))
JAK1
  Ki: 0.1 to 1 nM

## CCc1cc(O)ccc1-c1ccc2c(-c3nc(C4=CCCN(CCCOC)C4)c[nH]3)n[nH]c2c1F [Example 67]
[1]
  IC50: 10 to 31.6 nM
JAK2
  Ki: 0.1 to 1 nM
JAK1
  Ki: 0.1 to 1 nM

## CCc1cc(O)ccc1-c1ccc2c(-c3nc(C4=CCCN(CC5COC5)C4)c[nH]3)n[nH]c2c1F [Example 68]
[1]
  IC50: 10 to 31.6 nM
JAK2
  Ki: 0.1 to 1 nM
JAK1
  Ki: 0.1 to 1 nM

## CCc1cc(O)ccc1-c1ccc2c(-c3nc(C4=CCN(CC5COC5)C4)c[nH]3)n[nH]c2c1 [Example 71]
[1]
  IC50: 3.16 to 10 nM
JAK2
  JAK2 pKi: A (A represents a pKi value ≥10 (Ki≤0.1 nM))
JAK1
  JAK1 pKi: A (A represents a pKi value ≥10 (Ki≤0.1 nM))

## CCc1cc(O)ccc1-c1ccc2c(-c3nc(C4=CCN(C5CCOCC5)C4)c[nH]3)n[nH]c2c1 [Example 72]
[1]
  IC50: 3.16 to 10 nM
JAK2
  JAK2 pKi: A (A represents a pKi value ≥10 (Ki≤0.1 nM))
JAK1
  JAK1 pKi: A (A represents a pKi value ≥10 (Ki≤0.1 nM))

## CCc1cc(O)ccc1-c1ccc2c(-c3nc(C4=CCN(C5COC5)C4)c[nH]3)n[nH]c2c1 [Example 73]
[1]
  IC50: 10 to 31.6 nM
JAK2
  JAK2 pKi: A (A represents a pKi value ≥10 (Ki≤0.1 nM))
JAK1
  Ki: 0.1 to 1 nM

## CCc1cc(O)ccc1-c1ccc2c(-c3nc(C4=CCN(CC5COC5)C4)c[nH]3)n[nH]c2c1F [Example 74]
[1]
  IC50: 10 to 31.6 nM
JAK2
  JAK2 pKi: A (A represents a pKi value ≥10 (Ki≤0.1 nM))
JAK1
  Ki: 0.1 to 1 nM

## CCc1cc(O)ccc1-c1ccc2c(-c3nc(C4=CCN(CCSC)CC4)c[nH]3)n[nH]c2c1 [Example 76]
[1]
  IC50: 10 to 31.6 nM
JAK2
  Ki: 0.1 to 1 nM
JAK1
  Ki: 0.1 to 1 nM

## CCc1cc(O)ccc1-c1ccc2c(-c3nc(C4=CCN(CCS(C)(=O)=O)CC4)c[nH]3)n[nH]c2c1 [Example 77]
[1]
  IC50: 10 to 31.6 nM
JAK2
  JAK2 pKi: A (A represents a pKi value ≥10 (Ki≤0.1 nM))
JAK1
  Ki: 0.1 to 1 nM

## CCc1cc(O)ccc1-c1ccc2c(-c3nc(C4=CCN(CC(=O)NC)CC4)c[nH]3)n[nH]c2c1 [Example 78]
[1]
  IC50: 10 to 31.6 nM
JAK2
  JAK2 pKi: A (A represents a pKi value ≥10 (Ki≤0.1 nM))
JAK1
  Ki: 0.1 to 1 nM

## CCc1cc(O)ccc1-c1ccc2c(-c3nc(C4=CCN(CC(=O)NC(C)(C)C)CC4)c[nH]3)n[nH]c2c1 [Example 79]
[1]
  IC50: 10 to 31.6 nM
JAK2
  Ki: 0.1 to 1 nM
JAK1
  Ki: 0.1 to 1 nM

## CCc1cc(O)ccc1-c1ccc2c(-c3nc(C4=CCN(CCS(=O)(=O)NC)CC4)c[nH]3)n[nH]c2c1 [Example 80]
[1]
  IC50: 10 to 31.6 nM
JAK2
  JAK2 pKi: A (A represents a pKi value ≥10 (Ki≤0.1 nM))
JAK1
  Ki: 0.1 to 1 nM

## CCc1cc(O)ccc1-c1ccc2c(-c3nc(C4=CCN(CCS(C)(=O)=O)CC4)c[nH]3)n[nH]c2c1F [Example 82]
[1]
  IC50: 10 to 31.6 nM
JAK2
  Ki: 0.1 to 1 nM
JAK1
  Ki: 0.1 to 1 nM

## CCc1cc(O)ccc1-c1ccc2c(-c3nc(C4=CCN(CC(=O)NC(C)(C)C)CC4)c[nH]3)n[nH]c2c1F [Example 83]
[1]
  IC50: 31.6 to 100 nM
JAK2
  Ki: 0.1 to 1 nM
JAK1
  Ki: 1 to 10 nM

## CCc1cc(O)ccc1-c1ccc2c(-c3nc(C4=CCN(C5CCNC5=O)CC4)c[nH]3)n[nH]c2c1F (stereo not drawn) [Example 84]
[1]
  IC50: 31.6 to 100 nM
JAK2
  Ki: 0.1 to 1 nM
JAK1
  Ki: 0.1 to 1 nM

## CCc1cc(O)ccc1-c1ccc2c(-c3nc(C4=CCN(CCS(=O)(=O)NC)CC4)c[nH]3)n[nH]c2c1F [Example 85]
[1]
  IC50: 31.6 to 100 nM
JAK2
  Ki: 0.1 to 1 nM
JAK1
  Ki: 0.1 to 1 nM

## CCc1cc(O)ccc1-c1ccc2c(-c3nc(C4=CCCN(CCSC)C4)c[nH]3)n[nH]c2c1 [Example 86]
[1]
  IC50: 10 to 31.6 nM
JAK2
  Ki: 0.1 to 1 nM
JAK1
  Ki: 0.1 to 1 nM

## CCc1cc(O)ccc1-c1ccc2c(-c3nc(C4=CCCN(CCS(C)(=O)=O)C4)c[nH]3)n[nH]c2c1 [Example 87]
[1]
  IC50: 10 to 31.6 nM
JAK2
  JAK2 pKi: A (A represents a pKi value ≥10 (Ki≤0.1 nM))
JAK1
  Ki: 0.1 to 1 nM

## CCc1cc(O)ccc1-c1ccc2c(-c3nc(C4=CCCN(CC(=O)NC)C4)c[nH]3)n[nH]c2c1 [Example 88]
[1]
  IC50: 10 to 31.6 nM
JAK2
  JAK2 pKi: A (A represents a pKi value ≥10 (Ki≤0.1 nM))
JAK1
  Ki: 0.1 to 1 nM

## CCc1cc(O)ccc1-c1ccc2c(-c3nc(C4=CCCN(CCS(=O)(=O)NC)C4)c[nH]3)n[nH]c2c1 [Example 89]
[1]
  IC50: 10 to 31.6 nM
JAK2
  JAK2 pKi: A (A represents a pKi value ≥10 (Ki≤0.1 nM))
JAK1
  Ki: 0.1 to 1 nM

## CCc1cc(O)ccc1-c1ccc2c(-c3nc(C4=CCCN(CCS(C)(=O)=O)C4)c[nH]3)n[nH]c2c1F [Example 91]
[1]
  IC50: 10 to 31.6 nM
JAK2
  Ki: 0.1 to 1 nM
JAK1
  Ki: 0.1 to 1 nM

## CCc1cc(O)ccc1-c1ccc2c(-c3nc(C4=CCCN(CC(=O)NC)C4)c[nH]3)n[nH]c2c1F [Example 92]
[1]
  IC50: 10 to 31.6 nM
JAK2
  Ki: 0.1 to 1 nM
JAK1
  Ki: 1 to 10 nM

## CCc1cc(O)ccc1-c1ccc2c(-c3nc(C4=CCN(CC(=O)NC)C4)c[nH]3)n[nH]c2c1 [Example 93]
[1]
  IC50: 3.16 to 10 nM
JAK2
  JAK2 pKi: A (A represents a pKi value ≥10 (Ki≤0.1 nM))
JAK1
  Ki: 0.1 to 1 nM

## CCc1cc(O)ccc1-c1ccc2c(-c3nc(C4=CCN(CCC(=O)NC)C4)c[nH]3)n[nH]c2c1 [Example 95]
[1]
  IC50: 10 to 31.6 nM
JAK2
  JAK2 pKi: A (A represents a pKi value ≥10 (Ki≤0.1 nM))
JAK1
  JAK1 pKi: A (A represents a pKi value ≥10 (Ki≤0.1 nM))

## CCc1cc(O)ccc1-c1ccc2c(-c3nc(C4=CCN(CCS(=O)(=O)NC)C4)c[nH]3)n[nH]c2c1 [Example 96]
[1]
  IC50: 10 to 31.6 nM
JAK2
  JAK2 pKi: A (A represents a pKi value ≥10 (Ki≤0.1 nM))
JAK1
  Ki: 0.1 to 1 nM

## CCc1cc(O)ccc1-c1ccc2c(-c3nc(C4=CCN(CC(=O)NC)C4)c[nH]3)n[nH]c2c1F [Example 97]
[1]
  IC50: 3.16 to 10 nM
JAK2
  JAK2 pKi: A (A represents a pKi value ≥10 (Ki≤0.1 nM))
JAK1
  Ki: 0.1 to 1 nM

## CCc1cc(O)ccc1-c1ccc2c(-c3nc(C4=CCN(C5CCNC5=O)C4)c[nH]3)n[nH]c2c1F (stereo not drawn) [Example 98]
[1]
  IC50: 31.6 to 100 nM
JAK2
  JAK2 pKi: A (A represents a pKi value ≥10 (Ki≤0.1 nM))
JAK1
  Ki: 0.1 to 1 nM
